row,SMILES,melting point
1,CC(C)NC(=O)c1cc(Cl)nc(Cl)c1NC(=O)c1cc(C(F)(F)F)nn1-c1ncccc1Cl,240 to 242 °C
2,C=CCCC(C#N)(C#N)Cc1ccc(C#N)cc1,109 °C
3,O=C(c1ccc2[nH]c3ccccc3c2c1)N1CCCCC1,221 to 222 °C
4,O=C1NC(Cc2c[nH]c3ccccc23)C(CCc2cc(C(F)(F)F)cc(C(F)(F)F)c2)N1CCN1CCOCC1 (stereo unspecified),207 °C
5,CCCCn1c(=O)n(Cc2ccccc2)c(=O)c2c(Cl)cc(Cl)cc21,108 to 110 °C
6,Nc1cc(Cl)ccc1C(=O)NCCCc1cccnc1,145 to 147 °C
7,COc1cc2c(cc1OC)C1N=Cc3cc4c(cc3C1CC2)OCO4 (stereo unspecified),208 to 210 °C
8,Nc1ccc2c3c(cccc13)CC2,178 to 179 °C
9,CC(=O)Nc1scc(C)c1C(=O)c1ccccc1,106 to 107 °C
10,N#CC(C#N)=C1N(CCN2CCCCC2)CCN1CCN1CCCCC1,104 to 106 °C
11,COc1cc(NC(C)=O)c(Cl)cc1C(=O)N=[N+]=[N-],135 to 140 °C
12,CC(C)c1ccc(C(=O)N2CCCCC2)c(NS(=O)(=O)c2cccc3nsnc23)c1,125 to 127 °C
13,CC(=O)NCc1nc(NCCCOc2cccc(CN3CCCCC3)c2)n(C)n1,123 °C
14,COc1cccc2c(=O)c(CO)cn(C)c12,162 to 167 °C
15,CC(C)(C)C(=O)SC[C@H](NC(=O)C(C)(C)SC(=O)C(C)(C)C)C(=O)O,140 to 141 °C
16,O=c1c(Cl)c(OCc2ccc(Cl)cc2)cnn1-c1ccc(Cl)cn1,167 to 169 °C
17,C#CC1(O)CCC2C3CCC4=CC(=O)CCC4C3CCC21CCC (stereo unspecified),149 to 150 °C
18,CN1CCC(c2ccc(F)cc2)(C(C)(C)O)CC1,165 to 166 °C
19,CCOC(=O)c1cnn(-c2ccc(Oc3ccc(C)cc3O)cc2)c1,122 to 123 °C
20,OCCC(CCS)c1ccncc1 (stereo unspecified),50 to 52 °C
21,CON=C(N)Nc1nc(C)nc(OC)n1,142 °C
22,COC(=O)COCc1c(OC)ccc(OC)c1C=O,177 to 179 °C
23,O=C(C1CCCc2c1c1ccccc1n2Cc1ccccc1)N1CCN(c2ccccc2)CC1 (stereo unspecified),273 to 274 °C
24,Cn1ncc(/C=C/C(=O)Nc2ccc(Cc3nc4ccccc4[nH]3)cc2)c1-c1ccc(F)cc1,> 300 °C
25,N=C(Nc1cc(Cl)cc(NC(=O)/C=C/c2ccccc2Br)c1)c1ccccc1,99 to 101 °C
26,Clc1ccc2c(c1)OCc1cccnc1C2N1CCNCC1 (stereo unspecified),162 to 164 °C

row,SMILES,melting point
1,Cc1cccc(CNC(=O)c2nc3scc(COCc4ccc(C(=O)O)cc4)c3c(=O)[nH]2)c1,237 to 239 °C
2,COC(=O)C1=Cc2cc(-c3ccc4c(c3)OCO4)ccc2SCC1,126 to 129 °C
3,COc1c(Cl)cc(N2C(=O)N3CCCC3(Cc3ccc(C#N)cc3)C2=O)cc1Cl (stereo unspecified),95.1 °C
4,O=C(NCc1cccc(C(F)(F)F)c1)c1sc2ccccc2c1O,139 to 141 °C
5,CC(C)(C)OC(=O)Nc1ccc(-c2ccccc2F)cc1NC(=O)CC(=O)c1cccc([N+](=O)[O-])c1,167 °C
6,Cc1nccn1CC1CC2CCCn3c2c(c2ccccc23)C1=O (stereo unspecified),169 to 171 °C
7,COc1ccc(C(F)(F)F)cc1Nc1cccn2nc(Cl)nc12,144 to 146 °C
8,Nc1ccc(NC(=O)CN2CCCCC2)cc1,106 to 107 °C
9,COc1cc2c(c3c1OC(C)(C)C3)C(c1ccccc1)=NC(C)(CN1C(=O)c3ccccc3C1=O)C2 (stereo unspecified),121 to 125 °C
10,O=C(Sc1ccccc1)c1cc2cc(CCl)ccc2oc1=O,164 to 166 °C
11,CN1CC(=O)N2[C@H](c3ccc(O)c(O)c3)c3[nH]c4ccccc4c3C[C@@H]2C1=O,224 to 226 °C
12,NS(=O)(=O)Oc1ccc(F)cc1,82.5 to 85.5 °C
13,CCOC(=O)CC1CCc2cc3ccccc3n2C1 (stereo unspecified),66 to 68 °C
14,Fc1cccc(Cl)c1-c1nnc2ccc(C(F)(F)F)cn12,170 to 171 °C
15,COc1cccc(SCCF)c1S(N)(=O)=O,127 °C
16,O=C(O)COc1ccc(CN2C(=O)C3(COc4cc5c(cc43)OCCO5)c3ccccc32)cc1 (stereo unspecified),223 to 224 °C
17,C=CCCCCCCCCNC(=O)NOCc1ccccc1,53 to 55 °C
18,O=c1n(CCCF)nnn1-c1cc(Oc2ccc([N+](=O)[O-])cc2)c(Cl)cc1F,109 to 110 °C
19,Cc1cc(OCC(=O)Nc2cccc(C(=O)O)c2)ccc1C(C)C,188 to 189 °C
20,Cc1cn(C)c(=O)n(-c2cc(C(=O)OC(C)C)c(Cl)cc2F)c1=O,177 to 180 °C
21,CC(=O)OC1CSC(Oc2cc(C)c(-c3cccnc3)c(C)c2)C(OC(C)=O)C1OC(C)=O (stereo unspecified),75 to 80 °C
22,COc1ccc(C(=O)C2=C(c3ccccc3)c3ccc(OC)cc3CC2)cc1,107 to 108 °C
23,CC1CCC(c2ccc(Cl)c(Cl)c2)=NN1S(=O)(=O)c1ccc(I)cc1 (stereo unspecified),194 to 196 °C
24,O=C(O)COc1cc(Br)c2oc3ccccc3c(=O)c2c1,219 to 221 °C
25,CC(C)COC(=O)N[C@H](CC(=O)O)Cc1ccccc1,95 to 97 °C
26,COc1ccccc1C(Nc1cc(Cl)c(Cl)cc1Cl)C(=O)O (stereo unspecified),188 °C

row,SMILES,melting point
1,CC(=O)C(C)(C)Nc1ccccc1,65 to 66 °C
2,O=C1Cc2c(cc(Br)c3ccccc23)C(c2ccccc2F)N1 (stereo unspecified),257 to 260 °C
3,O=S1(=O)N=C(O)c2ccc(-c3ccccn3)cc21,305 to 311 °C
4,CS(=O)(=O)N1CC1COc1ccc(C#N)cc1 (stereo unspecified),79 to 81 °C
5,COc1ccc(C(=O)C2=C(O)C(=O)N(c3ccc(C)nn3)C2c2ccc(OC)cc2)cc1 (stereo unspecified),259 °C
6,Cc1ccc2[nH]c3c(cc(-c4ccccc4Nc4ccccc4)c(=O)n3C)c2c1,188 to 190 °C
7,CCOC(=O)C1=C(C)Nc2nc(N3CCOCC3)nc(N3CCOCC3)c2C1c1ccccc1C(F)(F)F (stereo unspecified),214 °C
8,COCc1nc(S)nc(O)c1OC,187 to 189 °C
9,O=c1[nH]ccn1CC#CCN1CCCC1,99 to 102 °C
10,CCOP(=O)(OCC)C(F)(F)c1ccc(CN(Cc2ccc(C(F)(F)P(=O)(OCC)OCC)cc2)C(=O)c2ccccc2)cc1,87 to 89 °C
11,NS(=O)(=O)c1cc2cc(CBr)ccc2s1,171 to 173 °C
12,Cc1ccc(N2CCN(c3c(C)c(C)c4c(c3C)CC(C)O4)CC2)cc1 (stereo unspecified),150 to 151 °C
13,CC(C)(C)C(NC(=O)c1ccc(Cl)cc1)NC(=NC#N)NCc1ccncc1 (stereo unspecified),189 to 191 °C
14,O=C(O)[C@H](Cc1c[nH]c2ccccc12)NC(=O)C1(NC(=O)[C@@H](S)C2CCOCC2)CCCC1,212 to 215 °C
15,CC(=O)c1ccc(S(=O)(=O)Nc2ccc(Cl)cn2)cc1,181 to 182 °C
16,COc1cc(CO)c(OC)c(CCl)c1,48 to 50 °C
17,Cc1ccc2nc(C)n(C3CCC(=O)NC3=O)c(=O)c2c1 (stereo unspecified),270 to 272 °C
18,Cc1oc2c(C)c(C)c(NCc3ccc(F)cc3)c(C)c2c1-c1ccc(C(C)C)cc1,95 to 97 °C
19,CCCCCCCCCCC#Cc1ccc2c(c1)c(C=O)cn2S(=O)(=O)c1ccc(C)cc1,84 to 86 °C
20,C=CCOc1ccc(Oc2ccc(C(=O)OC)cc2)cc1,75 °C
21,O=S1c2ccccc2Sc2ccc(-c3nnn[nH]3)cc21 (stereo unspecified),200 to 204 °C
22,CCn1ncnc1COc1nn2c(-c3ccccc3F)nncc2c1-c1ccsc1,187 to 193 °C
23,Cc1ccc(S(=O)(=O)OCC(O)Cc2cc(Cl)c3ccccc3c2OCc2ccccc2)cc1 (stereo unspecified),85 to 87 °C
24,Cn1c(C(N)=O)c(-c2ccc(F)cc2)c2ncccc2c1=O,300 to 301 °C
25,OCC1Cc2sccc2CN1 (racemic),110 °C
26,O=c1c2cc(F)c(N3CCCC3)c(F)c2n(C2CC2)c(=O)n1O,228 to 230 °C

row,SMILES,melting point
1,O=C(O)c1c(-c2ccccc2)c(-c2ccccc2)nn1-c1ccccc1,190 °C
2,CCNC(=NC#N)NCCN(CC1CCc2ccccc2O1)C(=O)OC(C)(C)C (stereo unspecified),115 °C
3,Cc1ccc(Cl)cc1NC(=O)c1cc([N+](=O)[O-])ccc1NC(=O)CF,210 to 212 °C
4,CNC(=O)N(C)c1nnc(SCC(=O)OC(C)(C)C)s1,174 °C
5,CS(=O)(=O)c1ccc(C(CC2CCCC2)C(=O)Nc2cnccn2)cc1[N+](=O)[O-] (stereo unspecified),104 to 108 °C
6,CCOCCOc1cc(C(F)(F)F)cc(N(N)C(=CNS(C)(=O)=O)[N+](=O)[O-])n1,153 °C
7,COc1cc(O)c(C(=O)CC(=O)C(C)(C)C#N)c(OC)c1,112 to 113 °C
8,O=C1Nc2cccc(-c3cnc4ccccc4c3)c2C12COc1cc3c(cc12)OCCO3 (stereo unspecified),221 to 224 °C
9,CC(C)CC(NC(=O)C(NC(=O)OCc1ccccc1)C(C(=O)O)C(C)(C)C)C(=O)NC(CCCCNC(=O)OC(C)(C)C)C(=O)O (stereo unspecified),173 to 174 °C
10,O=[N+]([O-])c1cnc(Sc2nnc(O)n2C2CCCCC2)s1,237 to 239 °C
11,COC(OC)C1(C)CN=C(c2cc3cccc(N(C)S(=O)(=O)c4cccs4)c3[nH]2)S1 (stereo unspecified),153 to 154 °C
12,Cc1c(C)c2c(c(C)c1O)CCC(C)(C(=O)N1CCC(Oc3ccc([N+](=O)[O-])cc3)C1)O2 (stereo unspecified),176 to 178 °C
13,CC(C)(C)OC(=O)/C(=C/C1CCCCC1)C(=O)c1ccccc1O,62 to 65 °C
14,NNc1nc(-c2ccccc2)co1,158 to 160 °C
15,CCCNCC(O)COc1ccccc1CCCc1cccc2c1CC(=O)N2 (stereo unspecified),122 °C
16,NC(=O)Cc1ccc2c(c1)CCc1cccnc1S2,165 to 166 °C
17,CCNc1nc(N)nc2c1ncn2C1CC(N=[N+]=[N-])C(CO)O1 (stereo unspecified),199 to 201 °C
18,Cc1c(C=O)c2cnnc(OCc3ccc(F)cc3)c2n1C[C@H]1C[C@@H]1C,138 to 140 °C
19,O=C(O)c1cccc(-c2cccc([N+](=O)[O-])c2)c1,271 to 272 °C
20,CCCC(=O)COS(=O)(=O)c1ccc(C)cc1,33 to 35 °C
21,O=C(NC1CCCCC1)NS(=O)(=O)c1ccc2c(c1)CCN(C(=O)N1CCOCC1)CC2,190 to 191 °C
22,Cc1ccc(Nc2ccccc2C(=O)O)c([N+](=O)[O-])c1,209 to 213 °C
23,Cc1nnc(-c2cc(O)c(O)c([N+](=O)[O-])c2)o1,245 to 246 °C
